Test results published in publication PMC4977651, “Molecular features of biguanides required for targeting of mitochondrial respiratory complex I and activation of AMP-kinase” (BMC Biology, 2016).
“And” between values parts separate entries of the source, which are not always exact repeats. Equal entries are not always repeated.

How the values were obtained:
[1] = test system: acetyl-coA carboxylase (phospho-Ser79); experiment: AMPK activation, western blot of phospho-acetyl-coA carboxylase in MDBK cells; format: cell-based, Bos taurus; details: for p-ACC: band intensity
Method: MDBK cells were seeded at 1 × 10^6 cells per 6 cm dish in DMEM containing 10 % FBS. […] After 18 h cells were harvested by a rapid lysis procedure: cells were rinsed with PBS, then lysed using ice-cold buffer containing 50 mM HEPES, 1 mM EDTA, 10 % glycerol, 50 mM NaF, 5 mM sodium pyrophosphate, 1 % Triton-X100, 1 mM dithiothreitol (DTT), and a protease inhibitor cocktail (Roche). The cell lysate was centrifuged at 14,000 × g for 20 min at 4 °C and the protein concentration of the supernatant determined by bicinchoninic acid assay. The lysate was analyzed using Novex 3–12 % bis-Tris gels run in 3-(N-morpholino)propanesulfonic acid (MOPS) buffer (20 μg of protein per lane) followed by transfer to low fluorescence polyvinylidene fluoride membranes by wet transfer. Primary rabbit antibodies for AMPK-β (57C12), AMPK-α (phospho-Thr172) (40H9), and acetyl-coA carboxylase (phospho-Ser79) (Cell Signaling Technology) were incubated overnight with the membrane (1:1000 dilution) in Odyssey blocking buffer at 4 °C. A fluorescent secondary antibody was used (IRDYE800CW from LI-COR Biosciences, 1:20,000 dilution) with a LI-COR Odyssey imaging system.

143B cells = experiment: Membrane potential measurement by TMRM fluorescence; format: cell-based, human
Method: 143B cells were seeded at 5 × 10^5 cells per 10 cm^2 well in DMEM containing 10 % FBS. […] The detached cells from each well were incubated in PBS containing 25 pg/mL tetramethylrhodamine, methyl ester (TMRM) and 20 μg/mL Hoescht stain for 20 min at 37 °C then washed twice and re-suspended in 200 μL PBS. TMRM fluorescence was detected using a NucleoCounter® NC 3000 cytometer with excitation at 530 nm and emission at 575 nm, with the Hoescht stain used to check for consistent cell density between samples.

## [H]/N=C(/N)N/C(=N/[H])NCCc1ccccc1 [phenformin, reference compound]
[1]; Averages of experiments 1-3, 18 hours
  ACC, average normalised to control: 7.37
[1]; Experiment 1, 18 hours
  p-ACC / AMPK beta: 1.27
  p-ACC / AMPK beta normalised to control: 6.56
  p-ACC: 586
[1]; Experiment 2, 18 hours
  p-ACC / AMPK beta: 1.60
  p-ACC / AMPK beta normalised to control: 9.93
  p-ACC: 598
[1]; Experiment 3, 18 hours
  p-ACC / AMPK beta: 1.68
  p-ACC / AMPK beta normalised to control: 5.62
  p-ACC: 404
143B cells; after 6.5 h, phenformin at IC50/10 (34 μM), FCCP at 1 μM, n = 3
  TMRM fluorescence, % of the control value: 22.4 ± 2.9%
143B cells; individual replicates, phenformin 6.5 hours
  mean-y (TMRM): 3427.6 and 3669.9 and 3614.5
143B cells; n 3, phenformin 6.5 hours
  TMRM average: 3570.67
  TMRM average, % control: 22.44 % control
